Measurements from US11981661B2, “Heterocyclic compounds” (Hoffmann-La Roche Inc., priority 2020, dated 2024).

Target: T1, MAGL (Homo sapiens, UniProt Q99685)
T1 sequence (Q99685 1-303): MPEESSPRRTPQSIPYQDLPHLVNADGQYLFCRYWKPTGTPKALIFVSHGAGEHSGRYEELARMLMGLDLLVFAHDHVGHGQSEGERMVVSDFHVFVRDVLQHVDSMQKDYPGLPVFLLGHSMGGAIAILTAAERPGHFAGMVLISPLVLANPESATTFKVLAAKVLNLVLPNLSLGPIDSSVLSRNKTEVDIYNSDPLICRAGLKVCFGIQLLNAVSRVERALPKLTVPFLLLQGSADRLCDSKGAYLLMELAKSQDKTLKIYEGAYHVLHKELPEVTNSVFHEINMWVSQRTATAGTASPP
Assay: 2-AG assay (MAGL inhibitory activity, hydrolysis of 2-arachidonoylglycerol followed by mass spectrometry)
Format: biochemical
Details: 50 pM MAGL, 8 μM 2-arachidonoylglycerol, 15 min preincubation, 30 min incubation at RT, concentration range 12.5 μM to 0.8 pM
Description: Compounds were profiled for MAGL inhibitory activity by determining the enzymatic activity by following the hydrolysis of the natural substrate 2-arachidonoylglycerol resulting in arachidonic acid, which can be followed by mass spectrometry. This assay is hereinafter abbreviated “2-AG assay”.
The 2-AG assay was carried out in 384 well assay plates (PP, Greiner Cat #784201) in a total volume of 20 μL. Compound dilutions were made in 100% DMSO (VWR Chemicals 23500.297) in a polypropylene plate in 3-fold dilution steps to give a final concentration range in the assay from 12.5 μM to 0.8 pM. 0.25 μL compound dilutions (100% DMSO) were added to 9 μL MAGL in assay buffer (50 mM TRIS (GIBCO, 15567-027), 1 mM EDTA (Fluka, 03690-100 mL), 0.01% (v/v) Tween. After shaking, the plate was incubated for 15 min at RT. To start the reaction, 10 μL 2-arachidonoylglycerol in assay buffer was added. The final concentrations in the assay was 50 pM MAGL and 8 μM 2-arachidonoylglyerol. After shaking and 30 min incubation at RT, the reaction was quenched by the addition of 40 μL of ACN containing 4 μM of d8-arachidonic acid. The amount of arachidonic acid was traced by an online SPE system (Agilent Rapidfire) coupled to a triple quadrupole mass spectrometer (Agilent 6460). A C18 SPE cartridge (G9205A) was used in an ACN/water liquid setup. The mass spectrometer was operated in negative electrospray mode following the mass transitions 303.1→259.1 for arachidonic acid and 311.1→267.0 for d8-arachidonic acid. The activity of the compounds was calculated based on the ratio of intensities [arachidonic acid/d8-arachidonic acid].

Point of comparison: `O=C1CCC(CCC(=O)N2CC(c3ccc(CC(F)(F)F)cc3)C2)N1` (single isomer, unassigned) [Example 8, (+)- or (−)-5-[3-Oxo-3-[3-[4-(2,2,2-trifluoroethyl)phenyl]azetidin-1-yl]propyl]pyrrolidin-2-one], IC50 26 nM. Against it:
- O=C(CCCc1cnn[nH]1)N1CC(c2ccc(N3CCC(C(F)(F)F)C3)nc2)C1 (racemic) [Example 45, rac-4-(1H-Triazol-5-yl)-1-[3-[6-[3-(trifluoro-methyl)pyrrolidin-1-yl]-3-pyridyl]azetidin-1-yl]butan-1-one] — 12-fold higher, 321 nM
- O=C1CCC(CCC(=O)N2CC(c3ccc(CC(F)(F)F)cc3)C2)N1 (single isomer, unassigned) [Example 7, (−)- or (+)-5-[3-Oxo-3-[3-[4-(2,2,2-trifluoroethyl)phenyl]azetidin-1-yl]propyl]pyrrolidin-2-one] — 99-fold higher, 2580 nM
- CC1(CCC(=O)N2CC(OCc3ccc(C(F)(F)F)cc3F)C2)CCC(=O)N1 (single isomer, unassigned) [Example 13, (−)- or (+)-5-[3-[3-[[2-Fluoro-4-(trifluoromethyl)phenyl]methoxy]azetidin-1-yl]-3-oxo-propyl]-5-methyl-pyrrolidin-2-one] — higher, ≥ 12500 nM
- CC1(CCC(=O)N2CC(c3ccc(C4(C(F)(F)F)CC4)cc3)C2)CCC(=O)N1 (single isomer, unassigned) [Example 15, (−)- or (+)-5-Methyl-5-[3-oxo-3-[3-[4-[1-(trifluoromethyl)cyclopropyl]phenyl]azetidin-1-yl]propyl]pyrrolidin-2-one] — higher, ≥ 12500 nM
- CC1(CCC(=O)N2CC(c3ccc(C4(C(F)(F)F)CC4)cc3)C2)CCC(=O)N1 (single isomer, unassigned) [Example 16, (+)- or (−)-5-Methyl-5-[3-oxo-3-[3-[4-[1-(trifluoromethyl)cyclopropyl]phenyl]azetidin-1-yl]propyl]pyrrolidin-2-one] — 8.2-fold higher, 213 nM
- CC1(CCC(=O)N2CC(c3ccc(Oc4cccc(Cl)c4)nc3)C2)CCC(=O)N1 (single isomer, unassigned) [Example 17, (−)- or (+)-5-[3-[3-[6-(3-Chlorophenoxy)-3-pyridyl]azetidin-1-yl]-3-oxo-propyl]-5-methyl-pyrrolidin-2-one] — higher, ≥ 12500 nM
- CC1(CCC(=O)N2CC(c3ccc(Oc4cccc(Cl)c4)nc3)C2)CCC(=O)N1 (single isomer, unassigned) [Example 18, (+)- or (−)-5-[3-[3-[6-(3-Chlorophenoxy)-3-pyridyl]azetidin-1-yl]-3-oxo-propyl]-5-methyl-pyrrolidin-2-one] — 100-fold higher, 2670 nM
- CS(=O)(=O)c1ccc(C(c2ccccc2)C2CCN(C(=O)CC[C@@H]3COC(=O)N3)CC2)cc1 (single isomer, unassigned) [Example 83, (+)- or (−)-(4R)-4-[3-[4-[(4-Methyl-sulfonylphenyl)-phenyl-methyl]-1-piperidyl]-3-oxo-propyl]oxazolidin-2-one] — 1.7-fold higher, 44 nM
- CS(=O)(=O)c1ccc(C(c2ccccc2)C2CCN(C(=O)CC[C@@H]3COC(=O)N3)CC2)cc1 (single isomer, unassigned) [Example 84, (−)- or (+)-(−)-(4R)-4-[3-[4-[(4-Methyl-sulfonylphenyl)-phenyl-methyl]-1-piperidyl]-3-oxo-propyl]oxazolidin-2-one] — 11-fold higher, 294 nM
- O=C1NC(COC(=O)N2CC(c3ccc(N4CCC(C(F)(F)F)C4)nc3)C2)CO1 (single isomer, unassigned) [Example 86, (−)- or (+)-[(4S)-2-Oxooxazolidin-4-yl]methyl 3-[6-[3-(trifluoromethyl)pyrrolidin-1-yl]-3-pyridyl]azetidine-1-carboxylate] — 2.1-fold higher, 54 nM
- O=C1NC(COC(=O)N2CC(c3ccc(N4CCC(C(F)(F)F)C4)nc3)C2)CO1 (single isomer, unassigned) [Example 87, (+)- or (−)-[(4S)-2-Oxooxazolidin-4-yl]methyl 3-[6-[3-(trifluoromethyl)pyrrolidin-1-yl]-3-pyridyl]azetidine-1-carboxylate] — within 1.5-fold, 32 nM
- O=C1N[C@H](CCC(=O)N2CC(c3ccc([C@H]4CC[C@@H](C(F)(F)F)CC4)nc3)C2)CO1 (single isomer, unassigned) [Example 200] — 26-fold lower, 1 nM
- O=C1N[C@H](CCC(=O)N2CC(c3ccc([C@H]4CC[C@H](C(F)(F)F)CC4)nc3)C2)CO1 (single isomer, unassigned) [Example 201] — 2.9-fold lower, 9 nM
- O=C1N[C@H](CCC(=O)N2CC(c3ccc(N4CCC(O)(C(F)(F)F)C4)nc3)C2)CO1 (single isomer, unassigned) [Example 204, (−)- or (+)-(4R)-4-[3-[3-[6-[3-Hydroxy-3-(trifluoromethyl)pyrrolidin-1-yl]-3-pyridyl]azetidin-1-yl]-3-oxo-propyl]oxazolidin-2-one] — 3.8-fold higher, 98 nM
- O=C1N[C@H](CCC(=O)N2CC(c3ccc(N4CCC(C(F)(F)F)C4)nc3)C2)CO1 (single isomer, unassigned) [Example 206] — 1.6-fold lower, 16 nM
- O=C1N[C@H](CCC(=O)N2CC(c3cnc(N4CCC(C(F)(F)F)C4)nc3)C2)CO1 (single isomer, unassigned) [Example 208, (−)- or (+)-(4R)-4-[3-Oxo-3-[3-[2-[3-(trifluoromethyl)pyrrolidin-1-yl]pyrimidin-5-yl]azetidin-1-yl]propyl]oxazolidin-2-one] — 5.3-fold higher, 138 nM
- O=C1NC(CCC(=O)N2CC(c3cnc(N4CCC(C(F)(F)F)C4)nc3)C2)CO1 (single isomer, unassigned) [Example 209, (+)- or (−)-(4R)-4-[3-Oxo-3-[3-[2-[3-(trifluoromethyl)pyrrolidin-1-yl]pyrimidin-5-yl]azetidin-1-yl]propyl]oxazolidin-2-one] — 5-fold higher, 131 nM
- O=C1N[C@H](CCC(=O)N2CC3(CCC(Cc4ccc(C(F)(F)F)nc4)C3)C2)CO1 (single isomer, unassigned) [Example 210, (−)- or (+)-(4R)-4-[3-Oxo-3-[6-[[6-(trifluoromethyl)-3-pyridyl]methyl]-2-azaspiro[3.4]octan-2-yl]propyl]oxazolidin-2-one] — 2.3-fold higher, 59 nM
- O=C1NC(CCC(=O)N2CC3(CCC(Cc4ccc(C(F)(F)F)nc4)C3)C2)CO1 (single isomer, unassigned) [Example 211, (+)- or (−)-(4R)-4-[3-Oxo-3-[6-[[6-(trifluoromethyl)-3-pyridyl]methyl]-2-azaspiro[3.4]octan-2-yl]propyl]oxazolidin-2-one] — 3.2-fold higher, 84 nM
- CS(=O)(=O)c1cc(Cl)ccc1-c1ccc(C2CN(C(=O)CCC3CNC(=O)N3)C2)cc1 (single isomer, unassigned) [Example 217, (−)- or (+)-4-[3-[3-[4-(4-Chloro-2-methylsulfonyl-phenyl)phenyl]azetidin-1-yl]-3-oxo-propyl]imidazolidin-2-one] — within 1.5-fold, 33 nM
- CS(=O)(=O)c1cc(Cl)ccc1-c1ccc(C2CN(C(=O)CCC3CNC(=O)N3)C2)cc1 (single isomer, unassigned) [Example 218, (+)- or (−)-4-[3-[3-[4-(4-Chloro-2-methylsulfonyl-phenyl)phenyl]azetidin-1-yl]-3-oxo-propyl]imidazolidin-2-one] — 47-fold higher, 1210 nM
- O=C1CCC(CCC(=O)N2CC(OCc3ccc(C(F)(F)F)cc3F)C2)N1 (single isomer, unassigned; (+)) [Example 2, (+)-5-[3-[3-[[2-Fluoro-4-(trifluoromethyl)phenyl]methoxy]azetidin-1-yl]-3-oxo-propyl]pyrrolidin-2-one] — within 1.5-fold, 19 nM
